Source: patent US20160376659A1, “Breast Cancer Biomarker” (The University of Manchester, priority 2015, published 2016)
Entries after “also recorded” stand apart in the source; their conditions may differ.

Tests used:
[1] = tested on: Early (HBC×34) and metastatic (BB3RC31) BC estrogen-dependent patient-derived xenograft tumors; experiment: 14 day in vivo window treatment of ER+ PDX tumors: tumor growth, Ki67, ER, PR; set-up: species or system mice; details: for proliferation marker Ki67 / tumor growth: 14 days, tamoxifen 10 mg/kg/day oral, fulvestrant 200 mg/kg/week s.c., RO4929097 3 mg/kg/day oral; for ER and PR protein expression levels: PDX tumors, 14 days in vivo, immunohistochemistry
Protocol: Early (HBC×34) and metastatic (BB3RC31) BC estrogen-dependent PDXs were administered with 8 ug/ml of 17-beta estradiol in drinking water at all times and were treated with drugs when tumors reached 200-300 mm^3. Experiments were performed using PDX tumors between passages 5 and 8. Animal weight and tumor size was measured bi-dimensionally using callipers twice a week. The HBC×34 model was kindly provided by Dr Elisabetta Marangoni from Institute Curie, Paris (Cottu et al., 2012).
(§1) Tamoxifen citrate (Sigma, T9262, 10 mg/kg/day) and RO4929097 (Cellagen Technology, 3 mg/kg/day) were administered by oral gavage (0.1 ml/dose) on a five day from seven basis (weekends excluded) for fourteen days. Tamoxifen citrate and RO4929097 were prepared in 1% carboxymethylcellulose (Sigma, C9481) dissolved in distilled water. Fulvestrant (kindly provided by Astrazeneca, 200 mg/kg/week) was administered by subcutaneous injection (0.1 ml/dose) on a weekly basis for fourteen days. The HBC×22 and HBC×34 tamoxifen-resistant PDXs have been established by our collaborators in the Curie Institute (Cottu el al, 2014) and were treated for fourteen days in the presence or absence of the gamma-secretase inhibitor RO4929097 (10 mg/kg/day, oral gavage). Xenografts were collected in ice cold DMEM media for live cell assays, histological analysis and RNA and protein extraction. Patient-derived xenograft single cell suspension was obtained using a collagenase-hyaluronidase mixture for digestion (Stem Cell Technologies).
Tissue microarrays (TMAs) were constructed from all formalin fixed and paraffin embedded tissue. 3×1 mm cores were taken per tissue block, and TMAs were cut into 3 μm thick sections and analysed by immunohistochemistry. Antibodies utilised were anti-ERα (Thermo, SP1), anti-PgR (Dako, M3569), anti-Ki67 (Dako, M7240), anti-HER2 (Vector Laboratories, VP-C380), anti-Hes1 (Abcam, ab108937) and anti-ALDH1 (BD Biosciences, 611195). Antigen retrieval was performed either using Target Retrieval Solution pH9 (Dako S2367, for ER, PR, Ki67 and ALDH1), Target Retrieval Solution pH6 (Dako S1699, for Hes1) or in 10 mM Citrate buffer (for HER2) in a […] water bath for 25 mins. All antibodies were detected using Dako EnVision Detection System Peroxidase/DAB, Rabbit/Mouse (Dako, K5007) and sections were counterstained with haematoxylin. Staining was quantified using Definiens Tissue Studio software. The percentage of positive epithelial cells was scored on 3 cores per tissue sample. For ER immunocytochemistry, approximately 50.000 cells were FACS sorted and then cytospun for 5 min at 80 G on poly-lysine coated slides. Cells were fixed with 4% paraformaldehyde (5 min), permeabilised with acetone (4 min) and methanol (2 min), and then blocked for 10 min with Peroxidase Blocking Reagent (Dako, S2001) and further 10 min with 3% goat serum before incubation with primary antibody. ER was then detected as described above for immunohistochemistry.

[2] = tested on: ER+ metastatic BC patient-derived samples; experiment: ALDEFLUOR assay (ALDH enzymatic activity) in metastatic patient-derived cells; format: cell-based, human; details: Tamoxifen 10^−6 M or Fulvestrant 10^−7 M, 7-9 days; seven out of nine patient samples
Protocol: Metastatic samples (ascites or pleural effusions) were centrifuged at 1000 g for 10 minutes at 4° C. The cell pellets were diluted in PBS. Erythrocytes and leucocytes were removed using Lymphoprep (Axis-Shield) and CD45-negative magnetic sorting (Miltenyi Biotec), respectively. Cells were cultured in adherence for 7-9 days in DMEM/F-12 medium, GlutaMAX (Gibco) with 10% FBS (Gibco), 10 μg/ml insulin (Sigma), 10 μg/ml hydrocortisone (Sigma) and 5 ng/ml epidermal growth factor (EGF, Sigma), in 10^−6M 4-OH-tamoxifen (Sigma, H7904), 10^−7M fulvestrant (ICI 182780, TOCRIS, 1047) or ethanol (control).
Dissociated single cells were suspended in Aldefluor assay buffer containing an ALDH substrate, bodipyaminoacetaldehyde (BAAA) at […], and incubated for 45 min at 37° C. To distinguish between ALDH-positive and -negative cells, a fraction of cells was incubated under identical conditions in the presence of a 2-fold molar excess of the ALDH inhibitor, diethylaminobenzaldehyde (DEAB). Mouse cells were excluded from the FACS analysis with anti-mouse MHC Class I (H-2Kd) antibody conjugated with Pacific Blue (BioLegend, 116616). 7-aminoactinomycin D (7AAD, BD) was added for dead cell exclusion. Data were acquired on a LSR II (BD) flow cytometer and analysed using the BD FACSDiva™ software.

[3] = tested on: Notch target genes HEY1 and HES1; experiment: HEY1 and HES1 expression by real-time PCR in PDX tumors treated in vivo; set-up: species or system mice; details: PDX tumors treated in vivo 2 weeks
Protocol: as §1, with “Xenografts were collected in ice cold DMEM media for live cell assays, histological analysis and RNA and protein extraction. Patient-derived xenograft single cell suspension was obtained using a collagenase-hyaluronidase mixture for digestion (Stem Cell Technologies).” left out
Total RNA was extracted using the RNeasy Plus Mini Kit (QIAGEN, 74104) and the concentration and purity determined using an ND-1000 spectrophotometer (NanoDrop Technologies). […] Quantitative real-time PCR reactions were set up in triplicate in 384-well plates and performed on the 7900 PCR machine (Applied Biosystems) using TaqMan® Universal PCR Master Mix (Applied Biosystems) and probes from Universal Probe Library (Roche). […] The expression levels were calculated using the ΔΔCt method and normalised to the housekeeping genes 36B4 and GAPDH. […]

| SMILES | proliferation marker Ki67 [1] | tumor growth [1] | ER and PR protein expression levels [1] | ALDH enzymatic activity [2] | HEY1 and HES1 expression [3] | PR expression ([1]; HBC×34 (early BC) PDX) |
| --- | --- | --- | --- | --- | --- | --- |
| CC(C)(C(=O)NCC(F)(F)C(F)(F)F)C(=O)N[C@@H]1C(=O)Nc2ccccc2-c2ccccc21 [RO4929097] | no impact | no impact | not modified |  |  |  |
| C[C@]12CC[C@@H]3c4ccc(O)cc4C[C@@H](CCCCCCCCC[S+]([O-])CCCC(F)(F)C(F)(F)F)[C@H]3[C@@H]1CC[C@@H]2O (stereo partly shown) [fulvestrant] | decrease; also recorded: reduced | reduced | reduced | significant increase | increased |  |
| CC/C(=C(\c1ccccc1)c1ccc(OCCN(C)C)cc1)c1ccccc1 [tamoxifen, (Z)-2-[4-(1,2-diphenylbut-1-enyl)phenoxy]-N,N-dimethylethanamine] | decrease; also recorded: reduced | reduced |  | significant increase | increased | down-regulated |
